Counter-ions that a name gives are not always drawn. Like-named read-outs stand apart in the source and are kept apart here.
Assays:
Parameters in all cases: species or system human
HCT116 = test: MTT based cell survival assay, parental HCT116; details: read-out: Mean IC50
Protocol: To study the mechanism of resistance towards DNA methylation inhibitor, 2′-deoxy-5-azacytidine, we used the human colorectal cancer cell line (HCT116), human promyelocytic leukemia cells (HL-60), and human breast adenocarcinoma cell line (MCF-7) obtained from American Type Culture Collection (Manassas, Va.). The cell lines were cultured in complete growth media (Sigma-Aldrich, St. Louis, Mo.), supplemented with fetal bovine serum (FBS, PAN-Biotech GmbH, Aidenbach, Germany), 100 U/mL penicillin (Biotika, Slovenská L'upča, Slovak Republic) and 50 μg/mL streptomycin (Sigma-Aldrich), and the cultures were maintained at 37° C. and 5% CO2, in a humidified incubator. The cell line, HCT116 was grown in McCoy's 5 A medium supplemented with 10% FBS and 3 mM L-glutamine (Sigma-Aldrich), HL-60 was grown in Iscove's Modified Dulbecco's Medium with 20% FBS, and MCF-7 was grown in RPMI-1640 medium with 10% FBS.
The method is primarily based on reduction of yellow colored tetrazolium salt, 3-(4,5-dimethylthiazol-2-yl)-2,5-diphenyltetrazolium bromide (MTT) to insoluble purple colored formazan crystals by NAD(P)H-dependent oxidoreductase enzymes in mitochondria of the viable cell. The intensity of the purple color produced on solubilization of the formazan crystals is directly proportional to the number of viable cells (Meerloo J. V. et al., Methods in Molecular Biology 2011; 731, 237-45).
To determine the IC50 of the epigenetic drugs (Tocris Bioscience, Bristol, United Kingdom), four independent experiments were performed using triplicate wells of 96 well plates. Cells in 80 μL of medium were plated in each of the experimental and the control wells, followed by addition of 20 μL medium with five-fold drug concentration to experimental wells. The wells with medium alone were included alongside as blank for absorbance readings. […], 10 μL MTT (Sigma-Aldrich) prepared in 1×PBS (5 mg/mL) was added to all wells including blank and control, and incubated until the purple formazan crystals were visible after which 100 μL of detergent (10% SDS, pH: 5.5) was added and the plates were incubated overnight to solubilize the formazan and the cellular material.
(§1) Cross resistance was determined as the fold increase, whereas, the sensitivity was determined as the fold decrease in the IC50 of the drugs for the resistant cell lines compared to their genetically identical drug sensitive counterpart.

R1.1 (HCT116-RDAC) = test: MTT based cell survival assay, DAC resistant HCT116 clone R1.1; details: for IC50: read-out: Mean IC50; for fold change (resistance index): IC50 R1.1 / IC50 HCT116
Protocol: (§2) The DAC resistant HCT116 cell lines were developed using two methods.
(§3) The method is primarily based on reduction of yellow colored tetrazolium salt, 3-(4,5-dimethylthiazol-2-yl)-2,5-diphenyltetrazolium bromide (MTT) to insoluble purple colored formazan crystals by NAD(P)H-dependent oxidoreductase enzymes in mitochondria of the viable cell.
(§4) Cells in 80 μL of medium were plated in each of the experimental and the control wells, followed by addition of 20 μL medium with five-fold drug concentration to experimental wells. The wells with medium alone were included alongside as blank for absorbance readings. After 72 h of drug treatment, 10 μL MTT (Sigma-Aldrich) prepared in 1×PBS (5 mg/mL) was added to all wells including blank and control, and incubated until the purple formazan crystals were visible after which 100 μL of detergent (10% SDS, pH: 5.5) was added and the plates were incubated overnight to solubilize the formazan and the cellular material.
as §1

R1.2 (HCT116-RDAC) = test: MTT based cell survival assay, DAC resistant HCT116 clone R1.2; details: for IC50: read-out: Mean IC50; for fold change (resistance index): IC50 R1.2 / IC50 HCT116
Protocol: as §2, §3, §4, §1

R1.3 (HCT116-RDAC) = test: MTT based cell survival assay, DAC resistant HCT116 clone R1.3; details: for IC50: read-out: Mean IC50; for fold change (resistance index): IC50 R1.3 / IC50 HCT116
Protocol: as §2, §3, §4, §1

R1.4 (HCT116-RDAC) = test: MTT based cell survival assay, DAC resistant HCT116 clone R1.4; details: for IC50: read-out: Mean IC50; for fold change (resistance index): IC50 R1.4 / IC50 HCT116
Protocol: as §2, §3, §4, §1

R2.1 (HCT116-RDAC) = test: MTT based cell survival assay, DAC resistant HCT116 clone R2.1; details: for IC50: R2.1, MTT, 72 h drug treatment; for fold change (resistance index): IC50 R2.1 / IC50 HCT116
Protocol: as §2, §3, §4, §1

R2.2 (HCT116-RDAC) = test: MTT based cell survival assay, DAC resistant HCT116 clone R2.2; details: for IC50: read-out: Mean IC50; for fold change (resistance index): IC50 R2.2 / IC50 HCT116
Protocol: as §2, §3, §4, §1

[1] = Homo sapiens, HCT-116, HCT116 parental, MTT, 72 h drug treatment
[2] = Homo sapiens, HCT-116, R1.1, MTT, 72 h drug treatment
[3] = Homo sapiens, HCT-116, R1.2, MTT, 72 h drug treatment
[4] = Homo sapiens, HCT-116, R1.3, MTT, 72 h drug treatment
[5] = Homo sapiens, HCT-116, R1.4, MTT, 72 h drug treatment
[6] = Homo sapiens, HCT-116, R2.2, MTT, 72 h drug treatment
[7] = HCT116 parental, MTT, 72 h drug treatment

Compound | IC50 (HCT116; [1]) | IC50 (R1.1 (HCT116-RDAC); [2]) | fold change (resistance index) (R1.1 (HCT116-RDAC)) | IC50 (R1.2 (HCT116-RDAC); [3]) | fold change (resistance index) (R1.2 (HCT116-RDAC)) | IC50 (R1.3 (HCT116-RDAC); [4]) | fold change (resistance index) (R1.3 (HCT116-RDAC)) | IC50 (R1.4 (HCT116-RDAC); [5]) | fold change (resistance index) (R1.4 (HCT116-RDAC)) | IC50 (R2.1 (HCT116-RDAC); Homo sapiens, HCT-116) | fold change (resistance index) (R2.1 (HCT116-RDAC)) | IC50 (R2.2 (HCT116-RDAC); [6]) | fold change (resistance index) (R2.2 (HCT116-RDAC)) | IC50 (HCT116; [7]) | IC50 (R1.1 (HCT116-RDAC); R1.1, MTT, 72 h drug treatment) | IC50 (R1.2 (HCT116-RDAC); R1.2, MTT, 72 h drug treatment) | IC50 (R1.3 (HCT116-RDAC); R1.3, MTT, 72 h drug treatment) | IC50 (R1.4 (HCT116-RDAC); R1.4, MTT, 72 h drug treatment) | IC50 (R2.1 (HCT116-RDAC)) | IC50 (R2.2 (HCT116-RDAC); R2.2, MTT, 72 h drug treatment) | other results
Nc1ncn([C@@H]2O[C@H](CO)[C@@H](O)[C@H]2O)c(=O)n1 [AZA, 5-azacytidine] | 3.02 µM | 9.36 µM | (3.10) fold | 11.7 µM | (3.87) fold | 10.6 µM | (3.50) fold | 14.9 µM | (4.92) fold | 12.3 µM | (4.07) fold | 14.5 µM | (4.19) fold | – | – | – | – | – | – | – | –
CCCCCCCCCCCCCCCc1cccc(O)c1C(=O)O [Ancardic acid, Anacardic acid] | – | – | (1.07) fold | – | (1.06) fold | – | (1.04) fold | – | (1.02) fold | – | (1.03) fold | – | (1.04) fold | 120 µM | 128 µM | 127 µM | 125 µM | 122 µM | 124 µM | 125 µM | –
COc1cc2nc(N3CCCN(C)CC3)nc(NC3CCN(Cc4ccccc4)CC3)c2cc1OC [BIX-01294] | 2.55 µM | 3 µM | (1.17) fold | 3.02 µM | (1.19) fold | 2.97 µM | (1.16) fold | 3.05 µM | (1.20) fold | 3.4 µM | (1.33) fold | 3.22 µM | (1.26) fold | – | – | – | – | – | – | – | –
CC1=NN(c2ccc(C(=O)O)cc2)C(=O)/C1=C\c1ccc(-c2cc(C)c(C)cc2[N+](=O)[O-])o1 [C646] | – | – | (1.35) fold | – | (1.51) fold | – | (1.42) fold | – | (1.53) fold | – | (1.52) fold | – | (1.64) fold | 33.5 µM | 45.1 µM | 50.6 µM | 47.5 µM | 51.3 µM | 51 µM | 55 µM | –
Cl.Nc1nccc2c1ncn2[C@@H]1C=C(CO)[C@@H](O)[C@H]1O [DZNep, 3-Deazaneplanocin A hydrochloride] | – | – | (30.34) fold | – | (30.34) fold | – | (30.34) fold | – | (30.34) fold | – | (30.34) fold | – | (30.34) fold | 0.82 µM | – | – | – | – | – | – | –
CCOC(=O)CCNc1cc(N2CCc3ccccc3CC2)nc(-c2ccccn2)n1 [GSK J4] | – | – | (1.52) fold | – | (1.30) fold | – | (1.39) fold | – | (1.34) fold | – | (2.11) fold | – | (1.87) fold | 2.28 µM | 3.45 µM | 2.95 µM | 3.18 µM | 3.05 µM | 4.81 µM | 4.25 µM | –
COc1cc2c(cc1-c1c(C)noc1C)ncc1[nH]c(=O)n([C@H](C)c3ccccn3)c12 [I-BET 151, I-BET 151 hydrochloride] | – | – | – | – | – | – | – | – | – | 3.16 µM | – | – | – | – | – | – | – | – | – | – | IC50 (HCT116; Homo sapiens, HCT-116, 72 h): 5.23 µM; IC50 (R1.1 (HCT116-RDAC); Homo sapiens, HCT-116, 72 h): 2.68 µM; fold change (sensitivity index) (R1.1 (HCT116-RDAC); IC50 HCT116 / IC50 R1.1): (1.95) fold; IC50 (R1.2 (HCT116-RDAC); Homo sapiens, HCT-116, 72 h): 5.18 µM; fold change (sensitivity index) (R1.2 (HCT116-RDAC); IC50 HCT116 / IC50 R1.2): (1.01) fold; IC50 (R1.3 (HCT116-RDAC); Homo sapiens, HCT-116, 72 h): 1.6 µM; fold change (sensitivity index) (R1.3 (HCT116-RDAC); IC50 HCT116 / IC50 R1.3): (3.28) fold; IC50 (R1.4 (HCT116-RDAC); Homo sapiens, HCT-116, 72 h): 3.58 µM; fold change (sensitivity index) (R1.4 (HCT116-RDAC); IC50 HCT116 / IC50 R1.4): (1.46) fold; fold change (sensitivity index) (R2.1 (HCT116-RDAC); IC50 HCT116 / IC50 R2.1): (1.65) fold; IC50 (R2.2 (HCT116-RDAC); Homo sapiens, HCT-116, 72 h): 5.4 µM; fold change (sensitivity index) (R2.2 (HCT116-RDAC); IC50 HCT116 / IC50 R2.2): (0.97) fold
O=C(O)c1ccc(O)c2ncccc12 [IOX1] | – | – | (1.41) fold | – | (2.15) fold | – | (1.80) fold | – | (1.96) fold | – | (1.70) fold | – | (1.93) fold | 29.6 µM | 41.6 µM | 63.6 µM | 53.2 µM | 58.1 µM | 50.2 µM | 57 µM | –
C/C=C1\NC(=O)[C@H]2CSSCC/C=C/[C@H](CC(=O)N[C@H](C(C)C)C(=O)N2)OC(=O)[C@H](C(C)C)NC1=O [Romidepsin] | – | – | (1.14) fold | – | (1.77) fold | – | (1.18) fold | – | (1.14) fold | 0.0054 µM | (1.95) fold | – | (2.64) fold | – | – | – | – | – | – | – | IC50 (HCT116; Homo sapiens, HCT-116, 72 h): 0.0028 µM; IC50 (R1.1 (HCT116-RDAC); Homo sapiens, HCT-116, 72 h): 0.0031 µM; IC50 (R1.2 (HCT116-RDAC); Homo sapiens, HCT-116, 72 h): 0.0049 µM; IC50 (R1.3 (HCT116-RDAC); Homo sapiens, HCT-116, 72 h): 0.0033 µM; IC50 (R1.4 (HCT116-RDAC); Homo sapiens, HCT-116, 72 h): 0.0031 µM; IC50 (R2.2 (HCT116-RDAC); Homo sapiens, HCT-116, 72 h): 0.0073 µM
O=c1ncccn1[C@@H]1O[C@H](CO)[C@@H](O)[C@H]1O [Zebularine] | 84.2 µM | ≥ 100 µM | (1.19) fold | ≥ 100 µM | (1.19) fold | ≥ 100 µM | (1.19) fold | ≥ 100 µM | (1.19) fold | ≥ 100 µM | (1.19) fold | ≥ 100 µM | (1.19) fold | – | – | – | – | – | – | – | –

— US20180251847A1, “METHOD OF PREDICTING THE TUMOR RESPONSE TO DNA METHYLATION INHIBITORS AND ALTERNATIVE THERAPEUTIC REGIMEN FOR OVERCOMING RESISTANCE” (PALACKY UNIVERSITY, OLOMOUC, priority 2014, published 2018)
